Legend:
[1] = target: T1, Alpha-1B adrenergic receptor (Rattus norvegicus) (UniProt P15823); test: Antagonist activity at alpha-1b adrenergic receptor in Wistar rat spleen assessed as inhibition of (-)-phenylephrine-induced contraction; format: tissue-based
T1 sequence (whole entry): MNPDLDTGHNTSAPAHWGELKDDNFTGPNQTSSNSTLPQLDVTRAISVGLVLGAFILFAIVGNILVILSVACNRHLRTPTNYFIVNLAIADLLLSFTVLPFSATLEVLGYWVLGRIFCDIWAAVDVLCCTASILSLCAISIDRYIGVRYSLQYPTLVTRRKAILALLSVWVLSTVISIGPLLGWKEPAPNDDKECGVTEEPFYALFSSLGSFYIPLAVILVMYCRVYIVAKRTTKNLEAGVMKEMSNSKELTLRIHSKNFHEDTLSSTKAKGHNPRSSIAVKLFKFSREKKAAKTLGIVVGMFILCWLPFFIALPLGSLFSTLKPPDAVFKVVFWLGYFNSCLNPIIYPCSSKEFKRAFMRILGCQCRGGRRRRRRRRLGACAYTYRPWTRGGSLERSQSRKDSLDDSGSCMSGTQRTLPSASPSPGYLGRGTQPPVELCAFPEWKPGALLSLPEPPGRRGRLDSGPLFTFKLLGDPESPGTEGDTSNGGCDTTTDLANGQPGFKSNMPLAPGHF

[2] = target: T2, Alpha-1D adrenergic receptor (Rattus norvegicus) (UniProt P23944); test: Antagonist activity at alpha-1d adrenergic receptor in Wistar rat thoracic aorta assessed as inhibition of (-)-noradrenaline-induced contractions
T2 sequence (whole entry): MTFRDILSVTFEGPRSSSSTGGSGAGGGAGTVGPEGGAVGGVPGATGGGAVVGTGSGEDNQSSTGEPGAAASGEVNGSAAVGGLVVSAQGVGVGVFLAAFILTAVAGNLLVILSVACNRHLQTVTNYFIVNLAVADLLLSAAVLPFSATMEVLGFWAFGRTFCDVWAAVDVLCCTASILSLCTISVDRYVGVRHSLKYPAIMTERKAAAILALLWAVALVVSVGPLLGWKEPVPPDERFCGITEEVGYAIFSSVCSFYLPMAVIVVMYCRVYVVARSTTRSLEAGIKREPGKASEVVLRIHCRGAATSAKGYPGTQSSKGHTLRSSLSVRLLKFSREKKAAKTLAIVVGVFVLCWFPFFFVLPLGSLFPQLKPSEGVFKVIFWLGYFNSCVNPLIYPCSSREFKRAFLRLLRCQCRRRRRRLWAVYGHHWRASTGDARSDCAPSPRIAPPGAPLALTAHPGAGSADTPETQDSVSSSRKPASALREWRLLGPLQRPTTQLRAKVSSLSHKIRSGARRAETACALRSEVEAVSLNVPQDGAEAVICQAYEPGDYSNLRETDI

[3] = target: T3, Alpha-1B adrenergic receptor (Homo sapiens, UniProt P35368); test: Displacement of [3H] prazosin from human cloned adrenoceptor alpha 1B expressed in CHO cell membrane incubated for 30 mins by liquid scintillation counter
T3 sequence (P35368 whole entry): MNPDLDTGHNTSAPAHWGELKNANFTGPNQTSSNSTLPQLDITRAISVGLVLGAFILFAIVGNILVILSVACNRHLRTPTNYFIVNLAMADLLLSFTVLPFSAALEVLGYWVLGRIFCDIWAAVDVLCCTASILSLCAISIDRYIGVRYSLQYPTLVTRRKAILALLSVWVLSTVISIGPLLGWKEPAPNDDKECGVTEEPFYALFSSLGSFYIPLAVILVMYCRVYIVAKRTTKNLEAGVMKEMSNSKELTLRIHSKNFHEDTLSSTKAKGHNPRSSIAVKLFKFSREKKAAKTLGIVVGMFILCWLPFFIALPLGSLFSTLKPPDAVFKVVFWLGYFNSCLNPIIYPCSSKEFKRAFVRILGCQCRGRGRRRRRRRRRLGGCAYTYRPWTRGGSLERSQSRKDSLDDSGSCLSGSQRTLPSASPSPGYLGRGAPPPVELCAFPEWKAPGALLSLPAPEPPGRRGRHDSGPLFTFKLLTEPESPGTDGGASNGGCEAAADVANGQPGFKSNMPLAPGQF

[4] = target: T4, 5-hydroxytryptamine receptor 1A (Homo sapiens, UniProt P08908); test: Displacement of [3H]8-OH-DPAT from human cloned 5HT-1AR transfected in HeLa cells incubated for 30 mins by liquid scintillation counter; format: cell-based
T4 sequence (P08908 whole entry): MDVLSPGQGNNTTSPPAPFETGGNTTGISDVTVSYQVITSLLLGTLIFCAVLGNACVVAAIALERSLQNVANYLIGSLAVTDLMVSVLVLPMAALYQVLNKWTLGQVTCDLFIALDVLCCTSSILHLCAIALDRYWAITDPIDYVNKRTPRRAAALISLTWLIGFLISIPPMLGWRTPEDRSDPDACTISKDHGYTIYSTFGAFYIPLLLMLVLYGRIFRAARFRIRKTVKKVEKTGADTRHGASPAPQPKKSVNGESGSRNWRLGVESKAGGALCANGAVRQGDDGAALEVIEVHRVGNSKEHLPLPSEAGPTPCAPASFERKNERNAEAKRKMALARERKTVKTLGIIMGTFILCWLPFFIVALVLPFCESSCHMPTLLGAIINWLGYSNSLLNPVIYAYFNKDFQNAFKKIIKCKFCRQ

[5] = target: T5, 5-hydroxytryptamine receptor 1A (Homo sapiens) (UniProt P08908); test: Agonist activity at human recombinant 5HT1A receptor expressed in human HeLa cells assessed as increase in [35S]GTPgammaS binding incubated for 20 mins by liquid scintillation counter relative to control; format: functional, cell-based
T5 sequence (whole entry): T4 sequence (P08908 whole entry)

[6] = target: T5, 5-hydroxytryptamine receptor 1A (Homo sapiens); details: HeLa
[7] = target: T6, Alpha-1D adrenergic receptor (Homo sapiens, UniProt P25100); test: biochemical
T6 sequence (P25100 whole entry): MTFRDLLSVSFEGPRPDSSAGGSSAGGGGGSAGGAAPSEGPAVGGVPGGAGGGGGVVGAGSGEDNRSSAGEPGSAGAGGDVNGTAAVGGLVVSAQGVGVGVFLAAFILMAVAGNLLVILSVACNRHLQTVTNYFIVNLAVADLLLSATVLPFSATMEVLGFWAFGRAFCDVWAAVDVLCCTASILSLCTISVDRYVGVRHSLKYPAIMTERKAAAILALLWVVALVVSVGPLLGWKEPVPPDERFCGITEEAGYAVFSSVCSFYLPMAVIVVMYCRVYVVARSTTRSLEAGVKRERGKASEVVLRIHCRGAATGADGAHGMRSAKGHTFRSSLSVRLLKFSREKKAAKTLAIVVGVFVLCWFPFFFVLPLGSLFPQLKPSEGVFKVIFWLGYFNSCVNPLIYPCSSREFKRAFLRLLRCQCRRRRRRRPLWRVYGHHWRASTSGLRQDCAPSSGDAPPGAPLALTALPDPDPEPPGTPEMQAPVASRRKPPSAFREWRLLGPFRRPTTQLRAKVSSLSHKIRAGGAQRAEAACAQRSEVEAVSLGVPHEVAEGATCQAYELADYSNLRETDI
Description: Displacement of [3H] prazosin from human cloned adrenoceptor alpha 1D expressed in CHO cell membrane incubated for 30 mins by liquid scintillation counter

Row | SMILES | pKb [1] | pKb [2] | Ki [3] [nM] | Ki [4] [nM] | Emax [5] [%] | pD2 [6] | Ki [7] [nM]
1 | COc1ccccc1OCCNCCC1COC(c2ccccc2)(c2ccccc2)O1 (configuration not stated) | 6.93 | 8.17 | 14.8 | 0.501 | 22.1 | 6.16 | 5.75
2 | OCC(CNCCOc1ccccc1)OC(c1ccccc1)c1ccccc1 (configuration not stated) | 6.98 | 7.07 | 2290 | 4.57 | 69.5 | 7.51 | 57.5
3 | COc1ccccc1OCCNCC1COC(c2ccccc2)(c2ccccc2)OC1.O=C(O)C(=O)O | 6.8 | 7.06 | 31.6 | 1.62 | 91.6 | 9.22 | 25.1
4 | COc1ccccc1OCCNCC[C@H]1CO[C@H](C(c2ccccc2)c2ccccc2)O1 (relative stereo) | 7.13 | 7.25 | 30.9 | 15.5 | 53 | 6.24 | 15.8
5 | COc1ccccc1OCCNCC[C@@H]1CO[C@H](C(c2ccccc2)c2ccccc2)O1 (relative stereo) | 6.91 | 7.67 | 64.6 | 25.7 | 82.1 | 5.86 | 16.6
6 | c1ccc(OCCNCC2COC(c3ccccc3)(c3ccccc3)OC2)cc1 | 6.76 | 6.76 | 282 | 23.4 | 88.7 | 5.87 | 178
7 | COc1ccccc1OCCNCC1CCOC(c2ccccc2)(c2ccccc2)O1 (configuration not stated) | 7.19 | 8.68 | 15.8 | 0.776 | 65.9 | 8.49 | 1.02
8 | c1ccc(OCCNCCOC(c2ccccc2)c2ccccc2)cc1 | 7.01 | 7.73 | 25.1 | 1.35 | 78.9 | 7.85 | 1.2
9 | COc1ccccc1OCCNCC(CO)OC(c1ccccc1)c1ccccc1 (configuration not stated) | 7.02 | 7.46 | 91.2 | 1.55 | 90.2 | 7.53 | 5.89
10 | COc1ccccc1OCCNCCOC(c1ccccc1)c1ccccc1 | 7.11 | 7.75 | 3020 | 7.24 | 77.3 | 7.38 | 10
11 | c1ccc(OCCNCC2CCOC(c3ccccc3)(c3ccccc3)O2)cc1 (configuration not stated) | 6.97 | 7.55 | 56.2 | 1.86 | 79.5 | 7.85 | 5.01

Source: ChEMBL document CHEMBL4350985, “1,3-Dioxane as a scaffold for potent and selective 5-HT1AR agonist with in-vivo anxiolytic, anti-depressant and anti-nociceptive activity” (Eur J Med Chem, 2019)
